According to patent US8143308B2, “Synthesis of oligo/poly(catechins) and methods of use” (University of Massachusetts Lowell, priority 2005, dated 2012):

How the values were obtained:
[1] = test system: MCF-7 (HTB-22, low metastatic breast adenocarcinoma) cells; experiment: Cell proliferation assay, MCF-7 low metastatic breast adenocarcinoma cells; format: cell-based, human; conditions: another experiment; only at high doses effective
[2] = Stability of activity after dissolving in solvent
[3] = test system: MCF-7 and MDA-MB-231 cells; experiment: Anticancer activity in vitro, summary statements for breast cancer cells; format: cell-based, human; conditions: MCF-7 and MDA-MB-231 in vitro
[4] = test system: MCF12A (CRL#10782, normal mammary epithelial) cells; experiment: Cell proliferation assay, MCF12A normal mammary epithelial cells; conditions: another experiment

With (−)-epigallocatechin gallate [EGCG] the “dose at which effective on MCF-7” value [1] was 9.2 µg/mL, the “time to loss of activity” value [2] was no more than 1 h and the “dose at which active / effective” value [3] was 1 to 40 µg/mL. For the same substance, the “inhibition of normal MCF-12A cells (in words)” value ([4]; 5.0 μg/ml) was “inhibited” and the “inhibition of normal MCF-12A cells (in words)” value ([4]; 40 μg/ml) was “inhibited”.
